Here are results for 22 compounds from EP0510036B1, “2-SUBSTITUTED 4,5-DIPHENYL-IMIDAZOLES” (RHONE-POULENC RORER S.A., priority 1990, dated 1991).

Test [1] concerns acyl coenzyme-A:cholesterol-O-acyl transferase (ACAT; EC 2.3.1.26). As to the kind of experiment: ACAT inhibition in rat liver microsomes incubated with radiolabelled oleoyl-CoA. The format is biochemical. Particulars: liver microsomes of rats fed 0.5%w/w cholesterol and 0.25%w/w cholic acid for 7 days; for In-vitro % Inhibition at 1»g/ml: compound at 1»g/ml; for In-vitro % Inhibition at 0.5»g/ml: compound at 0.5»g/ml. On the procedure:
In assays performed in-vitro, microsomes, obtained from the livers of rats fed on a diet supplemented with 0.5%w/w cholesterol and 0.25%w/w cholic acid for 7 days, were incubated with radiolabelled oleoyl-CoA in the presence of compounds according to the invention at a concentration of 0.5 or 1 »g/ml.

The subject of test [2] is plasma cholesterol concentrations. Briefly: Inhibition of increases in plasma cholesterol in cholesterol-fed rats. Particulars: diet supplemented by 0.03% w/w of test compound, measured after 3 days, relative to control animals. The test is classed as in vivo.

Molecules are shown by their SMILES.

`CC(Sc1nc(-c2ccccc2)c(-c2ccccc2)[nH]1)n1ccnc1` (racemic) [Compound 1I, (±)-2-[1-(imidazol-1-yl)ethylthio]-4,5-diphenylimidazole]: in test [1], the “In-vitro % Inhibition at 1»g/ml” value was 53%.

In the case of `Cc1nccn1CCCSc1nc(-c2ccccc2)c(-c2ccccc2)[nH]1` [Compound 1A, 2-[3-(2-methylimidazol-1-yl)propylthio]-4,5-diphenylimidazole], in test [2], the “In-vivo % Inhibition” value came out at 64%. In addition, the “In-vitro % Inhibition at 1»g/ml” value in test [1] came out at 90%.

Consider `c1ccc(-c2nc(SCCCn3cccn3)[nH]c2-c2ccccc2)cc1` [Compound 1B, 2-[3-(pyrazol-1-yl)propylthio]-4,5-diphenylimidazole], for which the “In-vitro % Inhibition at 1»g/ml” value in test [1] amounted to 83%.

For the compound `c1ccc(-c2nc(SCCn3cncn3)[nH]c2-c2ccccc2)cc1` [Compound 1C, 2-[2-(1,2,4-triazol-1-yl)ethylthio]-4,5-diphenylimidazole], the “In-vitro % Inhibition at 1»g/ml” value in test [1] is reported as 88%.

As to `c1ccc(-c2nc(SCCCn3cncn3)[nH]c2-c2ccccc2)cc1` [Compound 1D, 2-[3-(1,2,4-triazol-1-yl)propylthio]-4,5-diphenylimidazole], in test [1], the “In-vitro % Inhibition at 1»g/ml” value is on record as 84%.

In the case of `c1ccc(-c2nc(SCCCCn3cncn3)[nH]c2-c2ccccc2)cc1` [Compound 1E, 2-[4-(1,2,4-triazol-1-yl)butylthio]-4,5-diphenylimidazole], the “In-vivo % Inhibition” value in test [2] is reported as 53%. The “In-vitro % Inhibition at 1»g/ml” value in test [1] is on record as 86%.

Take `c1ccc(-c2nc(SCCCCCn3cncn3)[nH]c2-c2ccccc2)cc1` [Compound 1F, 2-[5-(1,2,4-triazol-1-yl)pentylthio]-4,5-diphenylimidazole]: in test [2], the “In-vivo % Inhibition” value is reported as 74%. Moreover, the “In-vitro % Inhibition at 1»g/ml” value in test [1] came out at 92%.

On to `c1ccc(-c2nc(SCCn3ccnc3)[nH]c2-c2ccccc2)cc1` [Compound 1G], for which, in test [1], the “In-vitro % Inhibition at 1»g/ml” value is 86%.

Regarding `c1ccc(-c2nc(SCCCn3ccnc3)[nH]c2-c2ccccc2)cc1` [Compound 1H, 2-[3-(imidazol-1-yl)propylthio]-4,5-diphenylimidazole], the “In-vitro % Inhibition at 1»g/ml” value in test [1] is on record as 80%.

As for `Cn1ccnc1CSc1nc(-c2ccccc2)c(-c2ccccc2)[nH]1` [Compound 1J, 2-[(1-methylimidazol-2-yl)methylthio]-4,5-diphenylimidazole], in test [1], the “In-vitro % Inhibition at 1»g/ml” value came to 85%.

For `Cl.Cn1ccnc1CSc1nc(-c2ccccc2)c(-c2ccccc2)[nH]1` [Compound 1JA, 2-[(1-methylimidazol-2-yl)methylthio]-4,5-diphenylimidazole hydrochloride], in test [2], the “In-vivo % Inhibition” value is reported as 23%. For the same compound, the “In-vitro % Inhibition at 1»g/ml” value in test [1] is reported as 82%.

As to `c1ccc(Cn2ccnc2CSc2nc(-c3ccccc3)c(-c3ccccc3)[nH]2)cc1` [Compound 1K, 2-[(1-benzylimidazol-2-yl)methylthio]-4,5-diphenylimidazole], the “In-vitro % Inhibition at 1»g/ml” value in test [1] is on record as 57%.

With `c1ccc(-c2nc(SCCCCCCn3cncn3)[nH]c2-c2ccccc2)cc1` [Compound 1L, 2-[6-(1,2,4-triazol-1-yl)hexylthio]-4,5-diphenylimidazole], the “In-vitro % Inhibition at 1»g/ml” value in test [1] amounted to 91%.

`Cc1nccn1CCCCSc1nc(-c2ccccc2)c(-c2ccccc2)[nH]1` [Compound 1M, 2-[4-(2-methylimidazol-1-yl)butylthio]-4,5-diphenylimidazole]: the “In-vivo % Inhibition” value in test [2] worked out at 26%. Further, the “In-vitro % Inhibition at 0.5»g/ml” value in test [1] amounted to 87%.

As for `c1ccc(-c2nc(SCCCn3ccnc3-c3ccccc3)[nH]c2-c2ccccc2)cc1` [Compound 1N, 2-[3-(2-phenylimidazol-1-yl)propylthio]-4,5-diphenylimidazole], the “In-vitro % Inhibition at 0.5»g/ml” value in test [1] was 57%.

`Cc1ncc([N+](=O)[O-])n1CCSc1nc(-c2ccccc2)c(-c2ccccc2)[nH]1` [Compound 1O, 2-[2-(2-methyl-5-nitroimidazol-1-yl)ethylthio]-4,5-diphenylimidazole]: the “In-vitro % Inhibition at 0.5»g/ml” value in test [1] is on record as 82%.

`Cc1cc(C)n(CCCSc2nc(-c3ccccc3)c(-c3ccccc3)[nH]2)n1` [Compound 1P, 2-[3-(3,5-dimethylpyrazol-1-yl)propylthio]-4,5-diphenylimidazole]: the “In-vitro % Inhibition at 0.5»g/ml” value in test [1] worked out at 87%.

With `c1ccc(-c2nc(SCCCn3cnnn3)[nH]c2-c2ccccc2)cc1` [Compound 1Q, 2-[3-(tetrazol-1-yl)propylthio]-4,5-diphenylimidazole], the “In-vitro % Inhibition at 1»g/ml” value in test [1] is reported as 88%.

Turning to `c1ccc(-c2nc(SCCCn3ncnn3)[nH]c2-c2ccccc2)cc1` [Compound 1R, 2-[3-(tetrazol-2-yl)propylthio]-4,5-diphenylimidazole], the “In-vitro % Inhibition at 1»g/ml” value in test [1] is listed as 80%.

For `c1ccc(-c2nc(SCCCCn3cnnn3)[nH]c2-c2ccccc2)cc1` [Compound 1S, 2-[4-(tetrazol-1-yl)butylthio]-4,5-diphenylimidazole], the “In-vivo % Inhibition” value in test [2] amounted to 41%. Further, in test [1], the “In-vitro % Inhibition at 0.5»g/ml” value was 84%.

Regarding `c1ccc(-c2nc(SCCCCn3ncnn3)[nH]c2-c2ccccc2)cc1` [Compound 1T, 2-[4-(tetrazol-2-yl)butylthio]-4,5-diphenylimidazole], the “In-vitro % Inhibition at 0.5»g/ml” value in test [1] came out at 74%.

As to `c1ccc(-c2nc(SCc3ccncc3)[nH]c2-c2ccccc2)cc1` [Compound 1U, 2-[pyrid-4-ylmethylthio]-4,5-diphenylimidazole], the “In-vitro % Inhibition at 1»g/ml” value in test [1] is recorded as 71%.
